# Laboratory results: US4943587A, “Hydroxamate derivatives of selected nonsteroidal antiinflammatory acyl residues and their use for cyclooxygenase and 5-lipoxygenase inhibition” (Warner-Lambert Company, priority 1988, dated 1990)
# Assays:
# 5-Lipoxygenase = molecular target: T1, 5-Lipoxygenase (Rattus norvegicus, UniProt P12527); test: ARBL: RBL-1 whole cell 5-lipoxygenase assay (inhibition of LTB4 formation); format: cell-based; settings: RBL-1 cells, A23187 5 μM
# T1 construct: host or cells: RBL-1 (rat basophilic leukemia)
# T1 sequence (P12527 1-673): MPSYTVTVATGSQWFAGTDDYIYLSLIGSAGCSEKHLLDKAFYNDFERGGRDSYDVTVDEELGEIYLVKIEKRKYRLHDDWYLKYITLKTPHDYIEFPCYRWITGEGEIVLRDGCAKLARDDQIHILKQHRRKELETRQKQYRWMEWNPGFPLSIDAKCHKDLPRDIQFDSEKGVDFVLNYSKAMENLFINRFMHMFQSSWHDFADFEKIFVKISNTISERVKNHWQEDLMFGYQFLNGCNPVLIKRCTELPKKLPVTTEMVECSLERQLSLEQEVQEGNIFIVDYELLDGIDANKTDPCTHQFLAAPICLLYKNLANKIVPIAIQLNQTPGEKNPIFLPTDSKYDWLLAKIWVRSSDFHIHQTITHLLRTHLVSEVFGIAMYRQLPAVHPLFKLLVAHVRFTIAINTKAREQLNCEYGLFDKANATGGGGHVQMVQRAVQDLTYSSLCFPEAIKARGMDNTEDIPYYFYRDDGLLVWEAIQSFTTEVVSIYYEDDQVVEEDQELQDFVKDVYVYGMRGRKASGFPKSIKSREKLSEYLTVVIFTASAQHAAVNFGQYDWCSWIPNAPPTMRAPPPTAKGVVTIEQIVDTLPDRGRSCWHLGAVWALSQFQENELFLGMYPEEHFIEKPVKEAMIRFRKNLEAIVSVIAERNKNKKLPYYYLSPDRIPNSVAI
# Description: (§1) ARBL/ARBC Whole Cell 5-Lipoxygenase and Cyclooxygenase Assays
# (§2) The rat basophilic leukemia cell line (RBL-1) was obtained from the American Type Culture Collection (Rockville, Md.).
# (§3) Radioimmuno assay (RIA) kits of LTB4 and PGF2α were obtained from Amersham (Arlington Heights, Ill.) and Seragen (Boston, Mass.) respectively.
# RBL-1 cells are grown in suspension culture in Eagle's minimum essential medium supplemented with 12% fetal bovine serum at 37° C. in an incubator supplied with air-5% carbon dioxide. Cells are harvested by centrifugation. They are washed with cold phosphate buffered saline pH 7.4 (PBS; NaCl, 7.1 g; Na2 PO4, 1.15 g; KH2 PO4, 0.2 g; and KCl, 0.2 g/l). Cells are finally suspended in PBS containing 1.0 mM calcium at a density of 2×10^6 cells/ml. Cells are incubated with and without test agent (in DMSO) (1% DMSO is without effect on arachidonic acid metabolism) for ten minutes at room temperature. Calcium ionophore A23187 (5 μM) is added and cells are incubated for seven minutes at 37° C. The reaction is stopped by chilling the tubes on ice for ten minutes. Cells are separated by centrifugation and the supernatant is stored at -20°. Aliquots (100 μl) are analyzed for LTB4 and PGF2α using radioimmuno assay kits as provided by the supplier.
# Cyclooxygenase [1] = molecular target: T2, Cyclooxygenase (Rattus norvegicus, UniProt Q63921); test: ARBC: RBL-1 whole cell cyclooxygenase assay (inhibition of PGF2α formation); format: cell-based; settings: RBL-1 cells, A23187 5 μM; for % inhibition ARBC (RBL whole cell cyclooxygenase, PGF2α inhibition): @ 32 (μM); for IC50: PGF2α formation
# T2 construct: host or cells: RBL-1 (rat basophilic leukemia)
# T2 sequence (Q63921 27-602): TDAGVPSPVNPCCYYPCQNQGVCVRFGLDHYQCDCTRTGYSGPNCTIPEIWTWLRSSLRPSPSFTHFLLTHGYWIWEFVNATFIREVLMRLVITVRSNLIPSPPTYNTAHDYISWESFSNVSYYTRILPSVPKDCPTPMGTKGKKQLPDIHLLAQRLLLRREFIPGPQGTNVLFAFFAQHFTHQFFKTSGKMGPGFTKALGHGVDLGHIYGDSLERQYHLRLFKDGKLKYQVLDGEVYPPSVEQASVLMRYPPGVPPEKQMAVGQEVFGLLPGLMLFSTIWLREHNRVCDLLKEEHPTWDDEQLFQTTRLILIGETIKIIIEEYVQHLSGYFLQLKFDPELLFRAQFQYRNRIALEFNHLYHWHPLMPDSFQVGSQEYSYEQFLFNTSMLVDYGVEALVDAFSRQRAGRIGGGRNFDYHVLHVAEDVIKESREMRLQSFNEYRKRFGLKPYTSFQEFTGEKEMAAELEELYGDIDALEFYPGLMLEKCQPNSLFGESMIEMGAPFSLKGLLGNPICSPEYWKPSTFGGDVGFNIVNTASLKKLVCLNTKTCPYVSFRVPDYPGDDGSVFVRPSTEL
# Description: as §1, §2, §3
# (§4) Cells are harvested by centrifugation. They are washed with cold phosphate buffered saline pH 7.4 (PBS; NaCl, 7.1 g; Na2 PO4, 1.15 g; KH2 PO4, 0.2 g; and KCl, 0.2 g/l). […] Calcium ionophore A23187 (5 μM) is added and cells are incubated for seven minutes at 37° C. The reaction is stopped by chilling the tubes on ice for ten minutes. Cells are separated by centrifugation and the supernatant is stored at -20°. Aliquots (100 μl) are analyzed for LTB4 and PGF2α using radioimmuno assay kits as provided by the supplier.
# [2] = test system: Carrageenan-induced rat foot paw edema; test: Carrageenan-induced rat foot paw edema (CFE-2) assay; format: in vivo; settings: read-out: CFE % Inhibition @ Dose; for inhibition in vivo at 30 mg/kg: 30 mg/kg PO; for inhibition in vivo at 30 mg/kg / inhibition in vivo at 10 mg/kg: 1 h before carrageenan, edema at 5 h; for inhibition in vivo at 10 mg/kg: 10 mg/kg PO
# Description: Carrageenan-Induced Rat Foot Paw Edema-2 (CFE-2) Assay: Protocol
# Carrageenan solution (1% w/v) is prepared by dissolving 100 mg carrageenan (Marine Colloidal Div., Springfield, N.J.) in 10 ml of sterile saline (0.9%) solution (Travenol). The solution is vortexed for thirty to forty-five minutes. Animals are dosed with compound one hour before carrageenan challenge. Foot paw edema is induced by injecting 0.05 ml of the 1% carrageenan subcutaneously into the plantar portion of the right hind paw of each rat under light anesthesia. Initial foot paw volume is measured immediately following carrageenan challenge using mercury plethysmography (Buxco Electronics). Edema is measured five hours after carrageenan. The difference between the five-hour and the initial paw volume is expressed as delta edema. The delta edema for each test group of animals is used to calculate the percent inhibition of edema achieved by the compound at the test dose compared with the vehicle control group. The ID25 (the dose at which swelling is inhibited by 25%) was calculated by probit analysis for the dose at which a result of 25 percent inhibition occurs.
# [3] = test system: Mycobacterium-induced rat footpad edema; test: Mycobacterium-induced rat footpad edema (MFE) assay; format: in vivo; settings: swelling at 72 h; for ED40: Rattus norvegicus, po, probit analysis, read-out: MFE ID40 (dose at which swelling is inhibited by 40%)
# Description: Mycobacterium - Induced Rat Footpad Edema Assay (MFE): Protocol
# Myobacterium butyricum (5 mg/ml) is suspended in paraffin oil by sonication for ten minutes in an ice bath. Footpad edema is induced on Day 0 by injecting 0.1 ml of the Mycobacterium mixture into the left hindpaw of lightly anesthetized rats. Swelling in the injected hindpaw is determined by mercury plethysmography seventy-two hours after injection. Groups of rats are treated with test compounds (suspended in 0.5% hydroxypropyl methylcellulose with 0.2% Tween-80) or vehicle one hour before Myobacterium injection and on Days 1 and 2. Inhibition of swelling is determined by comparing the change in hindpaw volume in compound- and vehicle-treated rats. An ID40 (the dose at which swelling is inhibited by 40%) was calculated by probit analysis.
# Cyclooxygenase [4] = test: ARBC: RBL-1 whole cell cyclooxygenase assay (inhibition of PGF2α formation); format: cell-based, rat; settings: ARBL/ARBC IC50; >1.0 cyclooxygenase selective, <1.0 5-lipoxygenase selective
# Description: as §1, §2, §3, §4
# [5] = Gastric ulcerogenicity (UD); format: in vivo, Male outbred Wistar rats; settings: rat, in vivo, po
# Description: (§5) Gastric Ulcerogenicity (UD) Protocol
# (§6) Male outbred Wistar rats (100-250 gms) were fasted for twenty-four hours. After fasting, test compounds were administered orally (in 2 ml/Kg of 0.5% hydroxypropyl methylcellulose) and the rats were denied access to food and water for six more hours. The rats were then sacrificed with CO2 so that the stomachs could be removed, opened along the greater curvature, and evaluated for the presence of gastric ulcers. Results are expressed as the percent of rats with gastric ulcers at a given dose.
# gastric ulcers in rats = test: Gastric ulcerogenicity (UD); format: in vivo, Male outbred Wistar rats; settings: 100 mg/kg PO, fasted rats, 6 h
# Description: as §5, §6
smiles,measurement,setting,value
"CONC(=O)CC1=C(C)/C(=C/c2ccc([S+](C)[O-])cc2)c2ccc(F)cc21 (stereo not drawn) [Example 2, (Z)-6-fluoro-N-methoxy-2-methyl-3-[[4-(methylsulfinyl)phenyl]methylene]-3H-indene-1-acetamide]",IC50,5-Lipoxygenase,26.4 µM
same,"% inhibition ARBC (RBL whole cell cyclooxygenase, PGF2α inhibition)",Cyclooxygenase [1],0%
"CC1=C(CC(=O)N(C)O)c2cc(F)ccc2/C1=C\c1ccc([S+](C)[O-])cc1 (stereo not drawn) [Example 1, (Z)-6-fluoro-N-hydroxy-N,2-dimethyl-3-[[4-(methylsulfinyl)phenyl]methylene]-3H-indene-1-acetamide]",inhibition in vivo at 30 mg/kg,[2],15%
same,IC50,5-Lipoxygenase,1 µM
same,MFE % Inhibition @ Dose,[3]; 10 mg/kg PO,30%
same,"% inhibition ARBC (RBL whole cell cyclooxygenase, PGF2α inhibition)",Cyclooxygenase [1],0%
"COc1ccc2c(c1)c(CC(=O)N(O)C1CCCCC1)c(C)n2C(=O)c1ccc(Cl)cc1 [Example 6, 1-(4-Chlorobenzoyl)-N-cyclohexyl-N-hydroxy-5-methoxy-2-methyl-1H-indole-3-acetamide]",inhibition in vivo at 10 mg/kg,[2],22%
same,IC50,5-Lipoxygenase,1.6 µM
same,ED40,[3],4.7 mg/kg
same,"RATIO, selectivity of inhibition",Cyclooxygenase [4],16.0
same,IC50,Cyclooxygenase [1],0.1 µM
"COc1ccc2c(c1)c(CC(=O)NO)c(C)n2C(=O)c1ccc(Cl)cc1 [Oxametacin, reference compound]",inhibition in vivo at 30 mg/kg,[2],46%
same,IC50,5-Lipoxygenase,7.5 µM
same,TD50 at 6 h,[5],103 mg/kg
"CC1=C(CC(=O)NO)c2cc(F)ccc2/C1=C\c1ccc([S+](C)[O-])cc1 (stereo not drawn) [Example 2A, (Z)-6-fluoro-N-hydroxy-2-methyl-3-[[4-(methylsulfinyl)phenYl]methylene]-3H-indene-1-acetamide]",inhibition in vivo at 30 mg/kg,[2],31%
same,IC50,5-Lipoxygenase,12.9 µM
same,MFE % Inhibition @ Dose,[3]; 50 mg/kg PO,53%
same,"% inhibition ARBC (RBL whole cell cyclooxygenase, PGF2α inhibition)",Cyclooxygenase [1],0%
"CONC(=O)Cc1c(C)n(C(=O)c2ccc(Cl)cc2)c2ccc(OC)cc12 [Example 4, 1-(4-Chlorobenzoyl)-N,5-dimethoxy-2-methyl-1H-indole-3-acetamide]",inhibition in vivo at 10 mg/kg,[2],40%
same,IC50,5-Lipoxygenase,24 µM
same,TD50 at 6 h,[5],42 mg/kg
same,"RATIO, selectivity of inhibition",Cyclooxygenase [4],120
same,IC50,Cyclooxygenase [1],0.2 µM
"COc1ccc2c(c1)c(CC(=O)O)c(C)n2C(=O)c1ccc(Cl)cc1 [Indomethacin, 1(p-chlorobenzoyl)-5-methoxy-2-methylindole-3-acetic acid, reference compound]",inhibition in vivo at 5 mg/kg,"[2]; po, 5 h",36%
same,IC50,5-Lipoxygenase,> 100 µM
same,ED40,[3],0.21 mg/kg
"COc1ccc2c(c1)c(CC(=O)N(C)O)c(C)n2C(=O)c1ccc(Cl)cc1 [Example 3, 1-(4-Chlorobenzoyl)-N-hydroxy-5-methoxy-N,2-dimethyl-1H-indole-3-acetamide]",inhibition in vivo at 10 mg/kg,[2],29%
same,IC50,5-Lipoxygenase,1.4 µM
same,ED40,[3],< 2 mg/kg
same,percent of rats with gastric ulcers at a given dose (UD50 column),gastric ulcers in rats,10%
"COc1ccc2c(c1)c(CC(=O)N(O)C(C)C)c(C)n2C(=O)c1ccc(Cl)cc1 [Example 5, 1-(4-Chlorobenzoyl)-N-hydroxy-5-methoxy-2-methyl-N-(1-methylethyl)-1H-indole-3-acetamide]",inhibition in vivo at 10 mg/kg,[2],27%
same,IC50,5-Lipoxygenase,0.9 µM
same,ED40,[3],0.82 mg/kg
